Measurements as given in US20100015058A1, “RADIOLABELED BBN-RGD HETERODIMERS FOR CANCER TARGETING” (STANFORD UNIVERSITY, priority 2008, published 2010).

Assays:
GRPR = biological target: T1, GRPR (Homo sapiens, UniProt P30550); assay: Displacement cell-binding assay with ^125I-[Tyr4]BBN on PC-3 cells; conditions: FIG. 34B, PEG3-Glu-RGD-BBN series; read-out: IC50, displacement of ^125I-[Tyr4]BBN from PC-3 cells
T1 construct: Experiments were performed on GRPR-expressing PC-3 cells following our previously described procedure; endogenous in cells; host or cells: PC-3 human prostate carcinoma cells
Procedure: Experiments were performed with triplicate samples.
BBN as the radioligand. […] Experiments were performed twice with triplicate samples.

in vivo [1] = conditions: mouse, in vivo, iv, total radioactivity
Procedure: (a) PET scans and image analysis were performed using a micro-PET R4 rodent model scanner (Siemens Medical Solutions) as reported by Li et al., J. Nucl. Med. (2007) 48: 1162-1171 and Wu et al., J Nucl. Med. (2005) 46: 1707-1718, both of which are incorporated herein by reference in their entireties). […] Five-minute static PET images were then acquired at 0.5, 1, and 2 h after injection. The images were reconstructed by a 2-dimensional ordered-subsets expectation maximum (OSEM) algorithm. No attenuation or scatter correction was applied. […] The 5-min static PET scans were then acquired at 1 hr after injection. For each small-animal PET scan, regions of interest (ROIs) were drawn over the tumor, normal tissue, and major organs by using vendor software (ASI Pro 5.2.4.0) on decay-corrected whole-body coronal images. The average radioactivity concentration (accumulation) within a tumor or an organ was obtained from mean pixel values within the multiple ROI volume, which were converted to counts/mL/min using a conversion factor. Assuming a tissue density of 1 g/mL, the ROIs were converted to counts/g/min, and then divided by the administered activity to obtain an imaging ROI-derived percentage injected dose per gram of tissue (% ID/g).
For dynamic PET, 30-min scans (1×30 s, 4×1 min, 1×1.5 min, 4×2 min, 5×3 min; total 15 frames) were started 1 min after injection, and two 5-min static PET images were also acquired at 1 h and 2 h after injection. […] For each small-animal PET scan, regions of interest (ROIs) were drawn over the tumor, normal tissue, and major organs using vendor software ASI Pro 5.2.4.0 on decay-corrected whole-body coronal images. The maximum radioactivity concentrations (accumulation) within a tumor or an organ were obtained from mean pixel values within the multiple ROI volume, and were converted to megabecquerels per milliliter per minute using a conversion factor. These values were then divided by the administered activity to obtain (assuming a tissue density of 1 g/ml) an image ROI-derived percent injected dose per gram (% ID/g).
The images were reconstructed using a 2-dimensional ordered-subsets expectation maximum algorithm without attenuation or scatter correction.
For each small-animal PET scan, regions of interest were drawn over each tumor, over normal tissue, and over major organs using vendor software (ASI Pro, version 5.2.4.0) on decay-corrected whole-body coronal images. The maximum radioactivity concentration (accumulation) within a tumor or an organ was obtained from the mean pixel values within the multiple-region-of-interest volume, which were converted to MBq/mL/min using a conversion factor. Assuming a tissue density of 1 g/mL, the regions of interest were converted to MBq/g/min and then divided by the administered activity to obtain an imaging region-of-interest-derived percentage injected dose (% ID)/g.

PC-3 tumor cells [2] = assay: Cell uptake assay on PC-3 tumor cells; format: cell-based, human; conditions: PC-3 cells
Procedure: In the cell uptake experiment, PC-3 cells were seeded into 12-well plates at a density of 5×10^5 cells per well for overnight incubation. Cells were rinsed 3 times with phosphate-buffered saline (PBS), followed by the addition of ^18F-FB-RGD, ^18F-FB-BBN, or ^18F-BBN-RGD to the cultured wells in triplicate (about 2 μCi/well). […] The cell lysate was collected in measurement tubes for counting. The cell uptake was normalized in terms of added radioactivity.
(§1) The cell uptake studies were performed as we have previously described with some modifications (Chen et al., Mol Imaging Biol. (2004) […]; Cai et al., (2006) J. Nuc. Med. 47: 1172-1180, incorporated herein by reference in their entireties). Briefly, PC-3 cells were seeded into 12-well plates at a density of 5×10^5 cells per well and incubated (about 18 kBq/well) with ^68Ga-labeled tracers at 37° C. for 15, 30, 60, and 120 min. Tumor cells were then washed three times with chilled PBS and harvested by trypsinization with 0.25% trypsin/0.02% EDTA (Invitrogen). The cell suspensions were collected and measured in a y counter (Packard, Meriden, Conn.). The cell uptake was expressed as the percent added dose (% AD) after decay correction. Experiments were performed twice with triplicate wells. For efflux studies, ^68Ga-labeled tracers (about 18 kBq/well) were first incubated with PC-3 cells in 12-well plates for 1 h at 37° C. to allow internalization. Then cells were washed twice with PBS, and incubated with cell culture medium for 15, 30, and 60 min. After washing three times with PBS, cells were harvested by trypsinization with 0.25% trypsin/0.02% EDTA. The cell suspensions were collected and measured in a γ counter. Experiments were performed twice with triplicate wells. Data are expressed as percent added dose after decay correction.

in vivo [3] = assay: in vivo; set-up: species or system mice; conditions: female, BALB/c, mouse, iv, 3.7 MBq, total radioactivity
Procedure: The 4T1 murine breast cancer cell line was purchased from American Type Culture Collection and grown in RMPI 1640 medium (Invitrogen Corp.) supplemented with 10% (v/v) fetal bovine serum (Invitrogen) at 37° C. with 5% CO2. The 4T1 tumor model was generated by subcutaneous injection of 5×10^6 tumor cells into the left front flank of female normal BALB/c mice (Harlan).
Five-minute static PET images were then acquired at 2 h after injection (n=3/group).

PC-3 tumor cells [4] = format: cell-based, human; conditions: PC-3 cells, 60 min efflux, FIG. 14D
Procedure: In the cell efflux experiment, PC-3 cells were seeded into 12-well plates at a density of 5×10^5 cells per well for overnight incubation. Cells were rinsed 3 times with PBS and then the appropriate ^18F-labeled peptide tracer was added. The cells were incubated at 37° C. for 2 hr, washed with PBS, and then reincubated with serum-free medium. The cells were washed at different time points (0, 15, 30, 60, 120, 180 min) with PBS and lysed with NaOH-SDS (0.2 M NaOH, 1% SDS). The cell lysate was collected in measurement tubes for counting. Efflux values at different time points were calculated by subtracting retention from 0-min retention, and normalized by dividing the total counts at 0 min.
as §1

[5] = Small-animal PET of MDA-MB-435 tumor-bearing mice; conditions: female, athymic nude, mouse, in vivo, iv, 3.7 MBq, total radioactivity, MDA-MB435 tumor uptake
Procedure: The MDA-MB435 tumor model was established by orthotopic injections of 5×10^6 cells into the right mammary fat pad of female athymic nude mice. […] The mice were subjected to microPET studies when the tumor volume reached 100-300 mm^3 (2-3 weeks for MDA-MB-435, and 4-5 wk for T47D).
For static PET, 5-min scans were acquired at 30 min, 1 h, and 2 h after injection. For dynamic PET, 30-min scans (1×30 s, 4×1 min, 1×1.5 min, 4×2 min, 5×3 min; total 15 frames) were started 1 min after injection, and two 5-min static PET images were also acquired at 1 h and 2 h after injection. The images were reconstructed using a two-dimensional ordered subsets expectation maximum (OSEM) algorithm and no correction was applied for attenuation or scatter. […] For each small-animal PET scan, regions of interest (ROIs) were drawn over the tumor, normal tissue, and major organs using vendor software ASI Pro 5.2.4.0 on decay-corrected whole-body coronal images. The maximum radioactivity concentrations (accumulation) within a tumor or an organ were obtained from mean pixel values within the multiple ROI volume, and were converted to megabecquerels per milliliter per minute using a conversion factor. These values were then divided by the administered activity to obtain (assuming a tissue density of 1 g/ml) an image ROI-derived percent injected dose per gram (% ID/g).
Quantification of tumor and major organ activity accumulation in the microPET scans was realized by measuring the regions of interest (ROIs) that encompassing the entire organ on the coronal images.

DU-145 tumor = format: in vivo, mice; conditions: integrin αvβ3-positive, low GRPR-expressing tumor
Procedure: The PC-3 and DU-145 human prostate carcinoma cell lines were purchased from American Type Culture Collection. PC-3 cells were grown in F-12K nutrient mixture (Kaighn's modification) (Invitrogen Corp.), and DU-145 cells were grown in minimum essential medium (Eagle) mixture supplemented with 10% (v/v) fetal bovine serum (Invitrogen) at 37° C. with 5% CO2. The PC-3 and DU-145 tumor models were generated by subcutaneous injection of 5×10^6 tumor cells into the front flank of male athymic nude mice (Harlan).
No attenuation or scatter correction was applied.

[6] = male, athymic nude, 5.5 MBq, Blood uptake
[7] = male, athymic nude, 5.5 MBq, Tumor uptake

T1 sequence (P30550 whole entry): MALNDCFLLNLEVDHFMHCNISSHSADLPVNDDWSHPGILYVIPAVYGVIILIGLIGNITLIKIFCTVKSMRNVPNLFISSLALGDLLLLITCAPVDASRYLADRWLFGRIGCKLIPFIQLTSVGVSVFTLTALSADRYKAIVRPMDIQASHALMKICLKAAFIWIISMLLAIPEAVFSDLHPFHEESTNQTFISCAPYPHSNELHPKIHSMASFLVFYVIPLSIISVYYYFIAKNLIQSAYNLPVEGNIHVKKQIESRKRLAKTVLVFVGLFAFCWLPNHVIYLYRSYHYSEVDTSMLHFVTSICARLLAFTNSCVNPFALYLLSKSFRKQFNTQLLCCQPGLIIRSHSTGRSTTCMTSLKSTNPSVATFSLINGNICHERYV

Molecule | tissue uptake at 0.5 h (in vivo [1]; [7]) | tissue uptake at 1 h (in vivo [1]; [7]) | tissue uptake at 4 h (in vivo [1]; [7]) | tissue uptake at 20 h (in vivo [1]; [7]) | tissue uptake at 1 h (in vivo [1]; 5.5 MBq, Blood uptake) | tissue uptake at 4 h (in vivo [1]; 5.5 MBq, Blood uptake) | tissue uptake at 20 h (in vivo [1]; 5.5 MBq, Blood uptake) | tissue uptake at 0.5 h (in vivo [1]; 5.5 MBq, Kidney uptake) | tissue uptake at 1 h (in vivo [1]; 5.5 MBq, Kidney uptake) | tissue uptake at 4 h (in vivo [1]; 5.5 MBq, Kidney uptake) | tissue uptake at 20 h (in vivo [1]; 5.5 MBq, Kidney uptake) | tissue uptake at 0.5 h (in vivo [1]; 5.5 MBq, Liver uptake) | tissue uptake at 1 h (in vivo [1]; 5.5 MBq, Liver uptake) | tissue uptake at 4 h (in vivo [1]; 5.5 MBq, Liver uptake) | tissue uptake at 20 h (in vivo [1]; 5.5 MBq, Liver uptake) | also measured
CSCC[C@H](NC(=O)[C@H](CC(C)C)NC(=O)[C@H](Cc1c[nH]cn1)NC(=O)CNC(=O)[C@@H](NC(=O)[C@H](C)NC(=O)[C@H](Cc1c[nH]c2ccccc12)NC(=O)[C@H](CCC(N)=O)NC(=O)CCCCCNC(=O)CC[C@H](NC(=O)COCCOCCOCCN)C(=O)NCCCC[C@@H]1NC(=O)[C@@H](Cc2ccc(O)cc2)NC(=O)[C@H](CC(=O)O)NC(=O)CNC(=O)[C@H](CCCNC(=N)N)NC1=O)C(C)C)C(N)=O [PEG3-Glu-RGD-BBN] |  |  |  |  |  |  |  |  |  |  |  |  |  |  |  | IC50 (GRPR): 85.4 ± 1.95 nM
CSCC[C@H](NC(=O)[C@H](CC(C)C)NC(=O)[C@H](Cc1c[nH]cn1)NC(=O)CNC(=O)[C@@H](NC(=O)[C@H](C)NC(=O)[C@H](Cc1c[nH]c2ccccc12)NC(=O)[C@H](CCC(N)=O)NC(=O)CCCCCNC(=O)CC[C@H](NC(=O)CN1CCN(CC(=O)O)CCN(CC(=O)O)CCN(CC(=O)O)CC1)C(=O)NCCCC[C@@H]1NC(=O)[C@@H](Cc2ccc(O)cc2)NC(=O)[C@H](CC(=O)O)NC(=O)CNC(=O)[C@H](CCCNC(=N)N)NC1=O)C(C)C)C(N)=O [^64Cu-DOTA-RGD-BBN, metal not drawn] | 3.05 ± 0.56 %ID/g | 1.87 ± 0.41 %ID/g | 1.05 ± 0.49 %ID/g | 0.97 ± 0.24 %ID/g | 0.69 ± 0.24 %ID/g | 0.45 ± 0.2 %ID/g | 0.31 ± 0.13 %ID/g | 5.99 ± 1.61 %ID/g | 3.4 ± 1.25 %ID/g | 2.51 ± 0.47 %ID/g | 1.64 ± 0.34 %ID/g | 3.4 ± 1.42 %ID/g | 3.05 ± 1.07 %ID/g | 2.33 ± 0.88 %ID/g | 1.74 ± 0.9 %ID/g | tissue uptake at 0.5 h (in vivo [1]; [6]): 1.15 ± 0.49 %ID/g; cell uptake value (PC-3 tumor cells [2]; 120 min): 3.70 % added dose
CSCC[C@H](NC(=O)[C@H](CC(C)C)NC(=O)[C@H](Cc1c[nH]cn1)NC(=O)CNC(=O)[C@@H](NC(=O)[C@H](C)NC(=O)[C@H](Cc1c[nH]c2ccccc12)NC(=O)[C@H](CCC(N)=O)NC(=O)CCCCCNC(=S)Nc1ccc(C[C@H]2CN(CC(=O)O)CCN(CC(=O)O)CCN2CC(=O)O)cc1)C(C)C)C(N)=O [^64Cu-NOTA-BBN, metal not drawn, reference compound] | 2.28 ± 0.35 %ID/g | 1.25 ± 1.03 %ID/g | 0.56 ± 0.4 %ID/g | 0.44 ± 0.39 %ID/g | 0.23 ± 0.11 %ID/g | 0.19 ± 0.1 %ID/g | 0.15 ± 0.05 %ID/g | 3.55 ± 1.17 %ID/g | 1.5 ± 0.39 %ID/g | 0.76 ± 0.45 %ID/g | 0.5 ± 0.44 %ID/g | 10.4 ± 2.27 %ID/g | 8.85 ± 1.61 %ID/g | 6.35 ± 0.57 %ID/g | 4.2 ± 0.53 %ID/g | tissue uptake at 0.5 h (in vivo [1]; [6]): < 1 %ID/g; tissue uptake at 24 h (in vivo [1]; [7]): 0.44 ± 0.39 %ID/g; tissue uptake at 2 h (in vivo [3]): 0.33 ± 0.18 %ID/g
N=C(N)NCCC[C@@H]1NC(=O)[C@H](CCCCNC(=S)Nc2ccc(C[C@H]3CN(CC(=O)O)CCN(CC(=O)O)CCN3CC(=O)O)cc2)NC(=O)[C@@H](Cc2ccc(O)cc2)NC(=O)[C@H](CC(=O)O)NC(=O)CNC1=O [^64Cu-NOTA-RGD, metal not drawn, reference compound] | 1.01 ± 0.29 %ID/g | 0.83 ± 0.24 %ID/g | 0.66 ± 0.21 %ID/g | 0.55 ± 0.32 %ID/g | 0.43 ± 0.32 %ID/g | 0.3 ± 0.11 %ID/g | 0.34 ± 0.18 %ID/g | 3.37 ± 0.89 %ID/g | 2.13 ± 0.85 %ID/g | 1.43 ± 0.68 %ID/g | 0.98 ± 0.48 %ID/g | 2.86 ± 1.06 %ID/g | 2.68 ± 1.15 %ID/g | 2.15 ± 0.79 %ID/g | 1.67 ± 0.69 %ID/g | tissue uptake at 2 h (in vivo [3]): 0.65 ± 0.07 %ID/g
CSCC[C@H](NC(=O)[C@H](CC(C)C)NC(=O)[C@H](Cc1c[nH]cn1)NC(=O)CNC(=O)[C@@H](NC(=O)[C@H](C)NC(=O)[C@H](Cc1c[nH]c2ccccc12)NC(=O)[C@H](CCC(N)=O)NC(=O)CCCCCNC(=S)Nc1ccc(C[C@H]2CN(CC(=O)O)CCN(CC(=O)O)CCN2CC(=O)O)cc1)C(C)C)C(N)=O [^68Ga-NOTA-BBN, metal not drawn, reference compound] |  |  |  |  |  |  |  |  |  |  |  |  |  |  |  | tissue uptake at 0.5 h (in vivo [1]; male, athymic nude, 3.7 MBq, liver uptake (highest)): 2 %ID/g; cell-associated tracer (cell retention) (PC-3 tumor cells [4]): 6.70±1.00 % AD; tissue uptake at 1 h [5]: 0.38 ± 0.5 %ID/g
N=C(N)NCCC[C@@H]1NC(=O)[C@H](CCCCNC(=S)Nc2ccc(C[C@H]3CN(CC(=O)O)CCN(CC(=O)O)CCN3CC(=O)O)cc2)NC(=O)[C@@H](Cc2ccc(O)cc2)NC(=O)[C@H](CC(=O)O)NC(=O)CNC1=O [^68Ga-NOTA-RGD, metal not drawn, reference compound] |  |  |  |  |  |  |  |  |  |  |  |  |  |  |  | tissue uptake at 1 h [5]: 1.63 ± 0.59 %ID/g
^18F-FB-BBN-RGD: ^18F-fluorobenzoate-labeled heterodimer of BBN(7-14) and c(RGDyK) joined through a glutamate linker |  |  |  |  |  |  |  |  |  |  |  |  |  |  |  | detection of the DU-145 tumor by PET (DU-145 tumor): able to visualize this tumor model
^18F-FB-RGD: ^18F-fluorobenzoate-labeled monomeric RGD peptide c(RGDyK) [reference compound] |  |  |  |  |  |  |  |  |  |  |  |  |  |  |  | detection of the DU-145 tumor by PET (DU-145 tumor): able to visualize this tumor model; cell uptake (PC-3 tumor cells [2]; 37° C., normalized to added radioactivity): < 0.5%
